Patent US20210308065A1, “REMOTE MODULATION OF BICONTINUOUS NANOSPHERES FOR CONTROLLED DELIVERY APPLICATIONS” (Northwestern University, priority 2020, published 2021)

Experiments:
[1] = In vitro BCN degradation and release of payloads after irradiation; format: physicochemical; settings: centrifugation
Procedure: In vitro BCN degradation and Release of payloads—In vitro degradation studies of PhA BCNs were performed under irradiation. Briefly, 200 μL of PhA BCNs (1 mg/ml) was transferred in to multiple wells of a 96 well black plate and then irradiated for 2.5 min at 50 mW/cm^2. The irradiated samples were immediately collected and centrifuged at 10,000×g for 10 min. After centrifugation, the supernatants and pellets were collected separately and analyzed using DLS and TEM as described above.
In vitro release of calcein, FITC-BSA, ethyl eosin and PhA from BCNs was measured after irradiation. 200 μL of PBS containing PhA BCNs co-loaded with calcein or FITC-BSA, or PhA BCNs and ethyl eosin BCNs, were transferred in to multiple wells of a 96 well black plate and then irradiated at 50 mW/cm^2 for 1.25, 2.5, 5 and 10 minutes. Post irradiation samples were centrifuged at 10,000×g for 10 min and supernatants were collected and further analyzed for amount released as described earlier. For PhA BCNs and ethyl eosin BCNs, % transmittance was measured using an M3 plate reader.

[2] = Encapsulation efficiency in PEG-b-PPS BCNs; format: physicochemical; settings: in PEG-b-PPS BCNs by FNP; hydrophilic cargo co-encapsulated with PhA
Procedure: Formation of PEG-b-PPS BCNs—BCNs were formed by flash nanoprecipitation (FNP) technique using a hand-driven CIJ mixer as described previously.^3, 14 10 mg of PEG-b-PPS polymer was dissolved in 500 μL of tetrahydrofuran (THF) and was impinged against 500 μL of Milli-Q water. After impingement the nascent BCNs were diluted in a 1.5 mL reservoir of Milli-Q water. THF was removed by vacuum desiccation overnight, resulting in a 5 mg/mL BCN formulation in water. In cases where hydrophobic cargo was loaded into BCNs, the cargo was dissolved along with the 10 mg of PEG-b-PPS polymer in the 500 μL of THF used for impingement. In cases where hydrophilic cargo was loaded into BCNs, the cargo was dissolved in the 500 μL of water used for impingement.
Loading and determination of encapsulation efficiency—The loading of hydrophilic molecules (Calcein, FITC-BSA, BODIPY-BSA) or hydrophobic molecules (Pheophorbide A or Camptothecin) in to BCNs was performed using FNP technique as stated above. Here, 500 μL of Calcien (1 mM) or fluorophore-BSA (2 mg/mL) in water was impinged against 500 μL of Pheophorbide A (0.2 mg/ml) or Camptothecin (0.6 mg/ml) in THF into an aqueous reservoir to form BCNs. After removal of THF via desiccation, BCNs were washed two times with distilled water by centrifugation (10,000×g, 10 min) to remove all the unencapsulated payloads and further resuspended in PBS or water for analysis. The amount of Pheophorbide A was determined by calculating absorbance at 666 nm. Calcein, FITC/BODIPY-BSA, and Camptothecin loading was analyzed by measuring fluorescence intensities at 470/509, 495/525, and 359/434 (excitation/emission, nm), respectively.

DN1 T cells = assay: Vaccination with BMDC treated ex vivo with MA or MA BCN, DN1 T cell activation and proliferation; format: in vivo, hCD1Tg mice; settings: 1 or 6 weeks after intratracheal vaccination; MA BCN vs MA pulsed BMDC
Excerpt: One week before the 1 and 6 week timepoints, 3e6 DN1 T cells were adoptively transferred intravenously. DLN, lung, and spleen were obtained.

RAW 264.7 cells = assay: MTT cell viability assay; format: cell-based, murine
Procedure: Cell culture—RAW 264.7 cells (murine macrophage cell line) were acquired from American Type Culture Collection (ATCC, Rockville, Md., USA) were employed for cell culture experiments.
MTT assay—RAW 264.7 cells (2×10^5 cells/mL, 100 μL) were plated in each well of a black 96-well plate and adhered overnight. The adhered cells were treated with free PhA (DMSO: PBS, 1:3) or PhA loaded BCNs (PBS) or CT BCNs or PhA-CT BCNs and incubated for 4 h. […] Post irradiation, cells were incubated for predetermined time intervals and then added with MTT (5 mg/mL in PBS, 10 μL). After 4 h MTT incubation with cells, formazan crystal deposition in each well was dissolved in DMSO (200 μL) and the absorbance was measured at 560 nm. All the samples were analyzed in quadruplicates.
The percentage cell viability was calculated as:
% cell viability=(OD of treated sample/OD of untreated sample)*100.

[3] = cited from earlier work

CCOC(=O)c1ccccc1-c1c2cc(Br)c(=O)c(Br)c-2oc2c(Br)c([O-])c(Br)cc12.[K+] [ethyl eosin]
Release of photo-oxidizer into the supernatant after irradiation of loaded BCNs [1]: comparably ineffective

FITC-BSA: fluorescein-tagged bovine serum albumin
Encapsulation efficiency [2]: 34±4%

mycolic acid [MA]
Activation and proliferation of DN1 T cells after vaccination with treated BMDC (DN1 T cells): differences in activation and proliferation of DN1 T cells 6 weeks after vaccination, but not 1 week after vaccination

pheophorbide A [PhA]
Encapsulation efficiency [2]: 80.7±2.2% | Release of photo-oxidizer into the supernatant after irradiation of loaded BCNs [1]: significantly greater amounts than the comparably ineffective ethyl eosin | Cell viability (MTT) (RAW 264.7 cells; RAW 264.7 cells, with irradiation vs non-irradiated, 12 h after irradiation): significant cell death | logP [3]: 6.93

CC[C@@]1(O)C(=O)OCc2c1cc1n(c2=O)Cc2cc3ccccc3nc2-1 [free camptothecin, camptothecin]
Cytotoxicity (MTT viability) (RAW 264.7 cells; free drug, camptothecin 0.63 μg/mL, 48 h): significantly more cytotoxic than non-irradiated CT-PhA-BCNs | Cytotoxicity (MTT viability) (RAW 264.7 cells; non-irradiated, 24 h, three camptothecin concentrations (0.63, 1.56, 3.1 μg/mL)): dose-dependent cytotoxicity at 24 h | Cytotoxicity (MTT viability) (RAW 264.7 cells; non-irradiated, 48 h, three camptothecin concentrations): high cytotoxicity regardless of concentration at 48 h

O=C(O)CN(CC(=O)O)Cc1cc2c(cc1O)Oc1cc(O)c(CN(CC(=O)O)CC(=O)O)cc1C21OC(=O)c2ccccc21 [calcein]
Encapsulation efficiency [2]: 6.7±1.9%
